Laboratory results taken from article PMC11930087, “Mobility of four structural regions drives isoform-specific properties of photoenzyme LPOR in plants” (The Journal of Biological Chemistry, 2025).

Tests used:
[1] = biological target: T1, SlPOR2 (Solanum lycopersicum, UniProt A0A3Q7IBI0); test: […] K Pchlide fluorescence in darkness, F648/F635 ratio vs NADPH, hyperbolic fit; assay type: binding; details: lipid-free; 5 μM Pchlide, 15 μM LPOR, pH 7.1, room-temperature dark incubation; apparent parameter, exact value in supplement; read-out: KM^D
T1 construct: gene POR; transit peptide removed; pET15b
T1 sequence (A0A3Q7IBI0 62-395): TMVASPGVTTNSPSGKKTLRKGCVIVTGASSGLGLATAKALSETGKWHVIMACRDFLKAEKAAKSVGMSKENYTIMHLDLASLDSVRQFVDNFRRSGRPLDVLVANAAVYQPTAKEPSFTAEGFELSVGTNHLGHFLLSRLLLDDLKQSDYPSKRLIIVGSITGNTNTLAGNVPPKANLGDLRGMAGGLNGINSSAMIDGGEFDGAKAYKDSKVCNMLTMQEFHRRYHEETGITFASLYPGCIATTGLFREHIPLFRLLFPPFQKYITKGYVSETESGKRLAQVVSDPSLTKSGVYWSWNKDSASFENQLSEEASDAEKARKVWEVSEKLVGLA

[2] = biological target: T2, AtPORC (Arabidopsis thaliana, UniProt O48741); test: biochemical; details: 400 uM OPT lipids, 5 uM Pchlide, 15 uM LPOR
T2 construct: gene PORC
T2 sequence (O48741 68-401): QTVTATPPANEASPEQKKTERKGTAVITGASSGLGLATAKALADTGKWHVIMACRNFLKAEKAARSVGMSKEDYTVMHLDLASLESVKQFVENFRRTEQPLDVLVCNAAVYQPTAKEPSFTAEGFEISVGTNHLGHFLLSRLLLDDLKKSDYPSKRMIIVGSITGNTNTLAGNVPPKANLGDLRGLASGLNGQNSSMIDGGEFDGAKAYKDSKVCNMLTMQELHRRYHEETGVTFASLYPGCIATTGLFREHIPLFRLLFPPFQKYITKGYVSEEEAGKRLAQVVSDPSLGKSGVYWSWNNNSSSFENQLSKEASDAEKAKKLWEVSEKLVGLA
Procedure: (Figs. 3A, S2). […] The resulting plots resembled saturation curves, to which a hyperbolic function similar to the Michaelis–Menten equation could be fitted (Figs. 3B, S3, Materials and Methods). […] However, KM^L values were consistently lower than KM^D values. […] The addition of 400 μM OPT lipids lowered the KM^D constant for all isoforms, except for SlPOR1, SlPOR3, HaPOR1, HaPOR2, and PeaPOR, where the constant remained unchanged within error estimates. […] Shaded areas represent the SD between replicates. […] A fit of a modified Michaelis–Menten equation is shown, along with the graphical representation of KM^D (B) or KM^L (C). Spectra corresponding to the given F648/F635 values (B) or F Chlide/F Pchlide values (C) are shown on the right side of the plot. D, relationship between KM^D and KM^L for investigated isoforms. The overall distribution of data points is shown in gray. Error bars represent the uncertainty associated with the fitted constant KM^x. Closed symbols represent constants determined for samples not supplemented with lipids, while open symbols these determined in the presence of 400 μM OPT lipids. LPOR, light-dependent protochlorophyllide oxidoreductase; Pchlide, protochlorophyllide; Chlide, chlorophyllide.

Structure (SMILES): NC(=O)C1=CN([C@@H]2O[C@H](COP(=O)(O)OP(=O)(O)OC[C@H]3O[C@@H](n4cnc5c(N)ncnc54)[C@H](OP(=O)(O)O)[C@@H]3O)[C@@H](O)[C@H]2O)C=CC1 [NADPH]
- Kd [1]: < 10 µM
- Michaelis-like constant in the dark (KM^D) [2]: 0.8 µM
